Tests used:
[1] = system: Spring Argentine canola (Brassica napus, BRSNS); assay: Example 3 field trials (Canada), postemergence crop safety, visual phytotoxicity
[2] = system: Nexera™ canola (Brassica napus, BRSNN-NEX); assay: Example 5 greenhouse trials, postemergence visual injury; conditions: BRSNN-NEX, 20-22 d

## O=C(O)c1nc(Cl)ccc1Cl [Clopyralid-olamine, 2-hydroxyethanaminium 3,6-dichloro-2-pyridinecarboxylate]
[1]; Table 23, 49DAAA, halauxifen-methyl 5, clopyralid-olamine 150 g ae/ha, alone or mixed
  Mean % Visual Injury: 0.8%
[1]; Table 24, 7DAAA, halauxifen-methyl 5, clopyralid-olamine 150 g ae/ha alone, or both mixed with isoxadifen-ethyl 20 g ae/ha
  Mean % Visual Injury: 2.0%
[1]; Table 24, 17DAAA, halauxifen-methyl 5, clopyralid-olamine 150 g ae/ha alone, or both mixed with isoxadifen-ethyl 20 g ae/ha
  Mean % Visual Injury: 1.0%
[1]; Table 24, 32DAAA, halauxifen-methyl 5, clopyralid-olamine 150 g ae/ha alone, or both mixed with isoxadifen-ethyl 20 g ae/ha
  Mean % Visual Injury: 2.0%
[1]; Table 24, 49DAAA, halauxifen-methyl 5, clopyralid-olamine 150 g ae/ha alone, or both mixed with isoxadifen-ethyl 20 g ae/ha
  Mean % Visual Injury: 0.8%
[1]; Table 28, 7DAAA, halauxifen-methyl 5, clopyralid-olamine 150, quinclorac 101 g ae/ha, alone or mixed
  Mean % Visual Injury: 2.0%
[1]; Table 28, 17DAAA, halauxifen-methyl 5, clopyralid-olamine 150, quinclorac 101 g ae/ha, alone or mixed
  Mean % Visual Injury: 1.0%
[1]; Table 28, 32DAAA, halauxifen-methyl 5, clopyralid-olamine 150, quinclorac 101 g ae/ha, alone or mixed
  Mean % Visual Injury: 2.0%
[1]; Table 28, 49DAAA, halauxifen-methyl 5, clopyralid-olamine 150, quinclorac 101 g ae/ha, alone or mixed
  Mean % Visual Injury: 0.8%
[1]; Trial 1, 16DAA1, halauxifen-methyl 2.5, clopyralid-olamine 150 g ae/ha, alone or mixed
  Mean % Visual Growth Inhibition: 5.5%
[1]; Trial 1, 30DAA1, halauxifen-methyl 2.5, clopyralid-olamine 150 g ae/ha, alone or mixed
  Mean % Visual Growth Inhibition: 6.3%
[1]; Trial 1, 58DAA1, halauxifen-methyl 2.5, clopyralid-olamine 150 g ae/ha, alone or mixed
  Mean % Visual Growth Inhibition: 2.8%
[1]; Trial 2, 32DAA1, halauxifen-methyl 0.62, clopyralid-olamine 150 g ae/ha, alone or mixed
  Mean % Visual Growth Inhibition: 2.8%
[1]; Trial 2, 32DAA1, halauxifen-methyl 1.25, clopyralid-olamine 150 g ae/ha, alone or mixed
  Mean % Visual Growth Inhibition: 2.8%
[1]; Trial 2, 32DAA1, halauxifen-methyl 2.5, clopyralid-olamine 150 g ae/ha, alone or mixed
  Mean % Visual Growth Inhibition: 2.8%
[1]; Trial 2, 49DAA1, halauxifen-methyl 0.62, clopyralid-olamine 150 g ae/ha, alone or mixed
  Mean % Visual Growth Inhibition: 2.8%
[1]; Trial 2, 49DAA1, halauxifen-methyl 1.25, clopyralid-olamine 150 g ae/ha, alone or mixed
  Mean % Visual Growth Inhibition: 2.8%
[1]; Trial 2, 49DAA1, halauxifen-methyl 2.5, clopyralid-olamine 150 g ae/ha, alone or mixed
  Mean % Visual Growth Inhibition: 2.8%
[1]; Trial 3, 8DAA1, halauxifen-methyl 5, clopyralid-olamine 150 g ae/ha, alone or mixed, line r23
  Mean % Visual Growth Inhibition: 0.8%
[1]; Trial 3, 8DAA1, halauxifen-methyl 5, clopyralid-olamine 150 g ae/ha, alone or mixed, line r25
  Mean % Visual Growth Inhibition: 0.3%
[1]; Trial 3, 8DAA1, halauxifen-methyl 10, clopyralid-olamine 150 g ae/ha, alone or mixed, line r22
  Mean % Visual Growth Inhibition: 0.8%
[1]; Trial 3, 8DAA1, halauxifen-methyl 10, clopyralid-olamine 150 g ae/ha, alone or mixed, line r24
  Mean % Visual Growth Inhibition: 0.3%
[1]; Trial 3, 17DAA1, halauxifen-methyl 5, clopyralid-olamine 150 g ae/ha, alone or mixed, line r27
  Mean % Visual Growth Inhibition: 1.0%
[1]; Trial 3, 17DAA1, halauxifen-methyl 5, clopyralid-olamine 150 g ae/ha, alone or mixed, line r29
  Mean % Visual Growth Inhibition: 1.3%
[1]; Trial 3, 17DAA1, halauxifen-methyl 10, clopyralid-olamine 150 g ae/ha, alone or mixed, line r26
  Mean % Visual Growth Inhibition: 1.0%
[1]; Trial 3, 17DAA1, halauxifen-methyl 10, clopyralid-olamine 150 g ae/ha, alone or mixed, line r28
  Mean % Visual Growth Inhibition: 1.3%
[1]; Trial 3, 35DAA1, halauxifen-methyl 10, clopyralid-olamine 150 g ae/ha, alone or mixed
  Mean % Visual Growth Inhibition: 0.8%
[1]; Trial 3, 48DAA1, halauxifen-methyl 5, clopyralid-olamine 150 g ae/ha, alone or mixed, line r31
  Mean % Visual Growth Inhibition: 2.0%
[1]; Trial 3, 48DAA1, halauxifen-methyl 5, clopyralid-olamine 150 g ae/ha, alone or mixed, line r32
  Mean % Visual Growth Inhibition: 0.8%
[1]; Trial 4, 13DAA1, halauxifen-methyl 10, clopyralid-olamine 150 g ae/ha, alone or mixed, line r33
  Mean % Visual Growth Inhibition: 0.0%
[1]; Trial 4, 13DAA1, halauxifen-methyl 10, clopyralid-olamine 150 g ae/ha, alone or mixed, line r34
  Mean % Visual Growth Inhibition: 0.0%
[1]; Trial 5, 7DAA1, halauxifen-methyl 0.62, clopyralid-olamine 150 g ae/ha, alone or mixed
  Mean % Visual Growth Inhibition: 1.3%
[1]; Trial 5, 7DAA1, halauxifen-methyl 1.25, clopyralid-olamine 150 g ae/ha, alone or mixed
  Mean % Visual Growth Inhibition: 1.3%
[1]; Trial 5, 7DAA1, halauxifen-methyl 2.5, clopyralid-olamine 150 g ae/ha, alone or mixed
  Mean % Visual Growth Inhibition: 1.3%
[1]; Trial 5, 7DAA1, halauxifen-methyl 5, clopyralid-olamine 150 g ae/ha, alone or mixed
  Mean % Visual Growth Inhibition: 1.3%
[1]; Trial 6, 33DAA1, halauxifen-methyl 5, clopyralid-olamine 150 g ae/ha, alone or mixed
  Mean % Visual Growth Inhibition: 0.5%
[1]; Trial 7, 8DAA1, halauxifen-methyl 5, clopyralid-olamine 150 g ae/ha, alone or mixed
  Mean % Visual Growth Inhibition: 1.5%
[1]; Trial 7, 15DAA1, halauxifen-methyl 0.62, clopyralid-olamine 150 g ae/ha, alone or mixed
  Mean % Visual Growth Inhibition: 1.0%
[1]; Trial 7, 15DAA1, halauxifen-methyl 5, clopyralid-olamine 150 g ae/ha, alone or mixed
  Mean % Visual Growth Inhibition: 1.0%
[1]; Trial 8, 7DAA1, halauxifen-methyl 5, clopyralid-olamine 150 g ae/ha, alone or mixed
  Mean % Visual Growth Inhibition: 0.5%
[1]; Trial 8, 7DAA1, halauxifen-methyl 10, clopyralid-olamine 150 g ae/ha, alone or mixed, line r44
  Mean % Visual Growth Inhibition: 0.0%
[1]; Trial 8, 7DAA1, halauxifen-methyl 10, clopyralid-olamine 150 g ae/ha, alone or mixed, line r45
  Mean % Visual Growth Inhibition: 0.0%
[1]; Trial 8, 7DAA1, halauxifen-methyl 10, clopyralid-olamine 150 g ae/ha, alone or mixed, line r46
  Mean % Visual Growth Inhibition: 1.3%
[1]; Trial 8, 7DAA1, halauxifen-methyl 10, clopyralid-olamine 150 g ae/ha, alone or mixed, line r47
  Mean % Visual Growth Inhibition: 1.5%
[1]; Trial 8, 15DAA1, halauxifen-methyl 5, clopyralid-olamine 150 g ae/ha, alone or mixed
  Mean % Visual Growth Inhibition: 0.0%
[1]; Trial 8, 15DAA1, halauxifen-methyl 10, clopyralid-olamine 150 g ae/ha, alone or mixed, line r49
  Mean % Visual Growth Inhibition: 0.0%
[1]; Trial 8, 15DAA1, halauxifen-methyl 10, clopyralid-olamine 150 g ae/ha, alone or mixed, line r50
  Mean % Visual Growth Inhibition: 0.5%
[1]; Trial 9, 6DAA1, halauxifen-methyl 5, clopyralid-olamine 150 g ae/ha, alone or mixed
  Mean % Visual Growth Inhibition: 0.0%
[1]; Trial 9, 23DAA1, halauxifen-methyl 2.5, clopyralid-olamine 150 g ae/ha, alone or mixed
  Mean % Visual Growth Inhibition: 0.0%
[1]; Trial 9, 23DAA1, halauxifen-methyl 5, clopyralid-olamine 150 g ae/ha, alone or mixed
  Mean % Visual Growth Inhibition: 0.0%
[1]; Trial 9, 33DAA1, halauxifen-methyl 5, clopyralid-olamine 150 g ae/ha, alone or mixed
  Mean % Visual Growth Inhibition: 0.0%
[1]; Trial 9, 59DAA1, halauxifen-methyl 5, clopyralid-olamine 150 g ae/ha, alone or mixed
  Mean % Visual Growth Inhibition: 0.0%
[1]; Trial 10, 17DAA1, halauxifen-methyl 5, clopyralid-olamine 100 g ae/ha, alone or mixed
  Mean % Visual Growth Inhibition: 0.0%
[1]; Trial 10, 17DAA1, halauxifen-methyl 5, clopyralid-olamine 150 g ae/ha, alone or mixed
  Mean % Visual Growth Inhibition: 0.0%
[1]; Trial 10, 17DAA1, halauxifen-methyl 5, clopyralid-olamine 200 g ae/ha, alone or mixed
  Mean % Visual Growth Inhibition: 0.0%
[1]; Trial 10, 27DAA1, halauxifen-methyl 5, clopyralid-olamine 150 g ae/ha, alone or mixed
  Mean % Visual Growth Inhibition: 0.0%
[1]; Trial 10, 27DAA1, halauxifen-methyl 5, clopyralid-olamine 200 g ae/ha, alone or mixed
  Mean % Visual Growth Inhibition: 1.7%
[1]; Trial 11, 7DAA1, halauxifen-methyl 5, clopyralid-olamine 150 g ae/ha, alone or mixed
  Mean % Visual Growth Inhibition: 2.5%
[1]; Trial 11, 15DAA1, halauxifen-methyl 0.62, clopyralid-olamine 150 g ae/ha, alone or mixed
  Mean % Visual Growth Inhibition: 3.0%
[1]; Trial 11, 15DAA1, halauxifen-methyl 1.25, clopyralid-olamine 150 g ae/ha, alone or mixed
  Mean % Visual Growth Inhibition: 3.0%
[1]; Trial 12, 15DAA1, halauxifen-methyl 10, clopyralid-olamine 150 g ae/ha, alone or mixed
  Mean % Visual Growth Inhibition: 0.0%
[1]; Trial 12, 27DAA1, halauxifen-methyl 5, clopyralid-olamine 150 g ae/ha, alone or mixed
  Mean % Visual Growth Inhibition: 1.0%
[2]; 50 g ai/ha alone
  % Visual Injury Obs: 0%
[2]; 100 g ai/ha alone
  % Visual Injury Obs: 0%
[2]; 200 g ai/ha alone
  % Visual Injury Obs: 0%

From patent US20170354148A1, “SAFENED HERBICIDAL COMPOSITIONS CONTAINING HALAUXIFEN AND METHODS OF USE THEREOF IN BRASSICA SPECIES” (Dow AgroSciences LLC, priority 2016, published 2017)
